{
  "source": "paper PMC12527922",
  "about": "“Cocaine chemogenetics blunts drug-seeking by synthetic physiology” (Nature, 2025)",
  "key": {"[1]": {"molecular_target": "T1, coca-GlyR (Homo sapiens, UniProt P23415+P36544, G175K/L141G/Y217F)", "T1 construct": "expressed in transfected cells; host or cells: HEK293 (ATCC CRL-1573), pcDNA3.1", "T1 sequence (P36544+P23415 fused P36544:L141G/P36544:G175K/P36544:Y217F)": "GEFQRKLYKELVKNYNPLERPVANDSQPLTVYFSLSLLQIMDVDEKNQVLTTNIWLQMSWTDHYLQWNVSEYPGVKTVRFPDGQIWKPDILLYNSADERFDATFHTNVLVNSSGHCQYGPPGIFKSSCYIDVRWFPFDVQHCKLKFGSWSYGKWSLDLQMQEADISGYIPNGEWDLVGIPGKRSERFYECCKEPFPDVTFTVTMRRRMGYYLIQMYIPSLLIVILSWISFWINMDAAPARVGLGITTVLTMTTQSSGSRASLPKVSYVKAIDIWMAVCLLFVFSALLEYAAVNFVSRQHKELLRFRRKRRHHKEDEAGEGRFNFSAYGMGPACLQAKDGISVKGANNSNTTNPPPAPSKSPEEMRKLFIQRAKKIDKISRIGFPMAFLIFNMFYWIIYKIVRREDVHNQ", "assay": "[^3H]ASEM displacement, membranes of HEK293 cells expressing coca-GlyR", "type": "binding", "settings": "for Ki: [^3H]ASEM competition, two-site fit", "procedure": "Cells were suspended in Tris-HCl 50 mM pH 7.4 supplemented with protease inhibitor cocktail (1:100, Sigma-Aldrich). HEK293 cells were disrupted with a 6 Polytron homogenizer (Kinematica). Homogenates were centrifuged at 48,000g (50 min, 4 °C) and washed twice in the same conditions to isolate the membrane fraction. Protein was quantified using the bicinchoninic acid method (Pierce). […] Free and membrane-bound radioligands were separated by rapid filtration of 500 μl aliquots in a 96-well plate harvester (Brandel) and washed with 2 ml of ice-cold Tris-HCl buffer. Microscint-20 scintillation liquid (65 μl per well, PerkinElmer) was added to the filter plates, plates were incubated overnight at room temperature and radioactivity counts were determined in the MicroBeta2 plate counter (PerkinElmer) with an efficiency of 41%. Two-site competition curves were fitted using Prism 10 (GraphPad). Ki values were calculated using the Cheng–Prusoff equation."}, "[2]": {"molecular_target": "T2, coca-GlyR (α7(L141G,G175K,Y217F)–GlyR) (Homo sapiens, UniProt P23415+P36544, G175K/L141G/Y217F)", "T2 construct": "expressed in transfected cells; host or cells: HEK293 (ATCC CRL-1573), pcDNA3.1", "T2 sequence (P36544+P23415 fused P36544:L141G/P36544:G175K/P36544:Y217F)": "as above", "assay": "Membrane potential assay, coca-GlyR in HEK293", "type": "cell-based"}, "[3]": {"tested_on": "coca-5HT3", "assay": "Whole-cell voltage-clamp in HEK293 cells, coca-5HT3", "type": "cell-based, human α7 nAChR LBD, mouse 5HT3 IPD", "procedure": "Channel mutants and agonists were further characterized in whole-cell voltage-clamp experiments performed on HEK293 cells. At passage 44–48, cells were plated at low density (1 × 10^3 per cm^2) on poly-D-lysine-coated glass coverslips, then transfected in 10 cm^2 wells using the Fugene 6 transfection reagent (Roche) with DNA plasmids containing both an ion channel cDNA (pcDNA3.1, 2 µg per well) and cDNA for GFP (pCMV, 0.1 μg per well), followed by replacement of the medium after 3 h. Recordings were made 24–72 h after transfection.\nElectrophysiological recordings were performed in whole-cell voltage-clamp mode, on an inverted fluorescence microscope (Olympus IX-51) using pClamp software and a […] amplifier (Molecular Devices). Electrophysiological data was filtered at 4 kHz, digitized at 10 kHz using a Digidata 1400 interface (Molecular Devices), recorded on a PC (Dell) and analysed using custom MATLAB software (MathWorks). Solutions were delivered from a gravity fed perfusion system through a capillary tube placed approximately […] from the recorded cell using an eight-way manifold pinch valve system (Nanion), which was controlled from the acquisition software. This allowed for up to seven concentrations of agonist to be tested. […]"}, "[4]": {"tested_on": "α7–5HT3 mutant chimeric channels", "assay": "cell-based", "type": "cell-based, human α7 nAChR LBD, mouse 5HT3 IPD", "settings": "for EC50: sheet 1e"}, "[5]": {"molecular_target": "α7–GlyR mutant chimeric channels (Homo sapiens, UniProt P36544, L131K)", "sequence (P36544 23-229 L131K)": "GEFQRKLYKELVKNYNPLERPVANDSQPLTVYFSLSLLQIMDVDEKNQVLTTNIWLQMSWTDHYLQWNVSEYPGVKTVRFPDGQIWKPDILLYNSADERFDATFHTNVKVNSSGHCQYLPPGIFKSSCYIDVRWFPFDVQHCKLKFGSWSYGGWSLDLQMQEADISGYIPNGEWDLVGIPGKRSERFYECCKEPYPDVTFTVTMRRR", "sequence (P23415 248-457 partner)": "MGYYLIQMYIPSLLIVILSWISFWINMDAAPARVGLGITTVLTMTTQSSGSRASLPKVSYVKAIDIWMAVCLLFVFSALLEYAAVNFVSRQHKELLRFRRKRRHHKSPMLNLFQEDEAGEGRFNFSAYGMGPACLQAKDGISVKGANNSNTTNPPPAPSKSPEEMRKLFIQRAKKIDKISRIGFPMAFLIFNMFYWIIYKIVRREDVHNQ", "assay": "Membrane potential assay screen, mutant α7–GlyR chimeric channels", "type": "cell-based", "settings": "EC50 at α7 GlyR L131K, sheet 1d"}, "[6]": {"molecular_target": "α7–GlyR mutant chimeric channels (Homo sapiens, UniProt P36544, L141P)", "sequence (P36544 23-230 L141P)": "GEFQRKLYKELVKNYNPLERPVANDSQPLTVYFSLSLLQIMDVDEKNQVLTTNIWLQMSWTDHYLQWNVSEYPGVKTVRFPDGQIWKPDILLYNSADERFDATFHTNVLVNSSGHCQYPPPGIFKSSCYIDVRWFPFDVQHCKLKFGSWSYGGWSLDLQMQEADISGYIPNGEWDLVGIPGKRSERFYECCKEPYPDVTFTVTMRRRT", "sequence (P23415 247-457 partner)": "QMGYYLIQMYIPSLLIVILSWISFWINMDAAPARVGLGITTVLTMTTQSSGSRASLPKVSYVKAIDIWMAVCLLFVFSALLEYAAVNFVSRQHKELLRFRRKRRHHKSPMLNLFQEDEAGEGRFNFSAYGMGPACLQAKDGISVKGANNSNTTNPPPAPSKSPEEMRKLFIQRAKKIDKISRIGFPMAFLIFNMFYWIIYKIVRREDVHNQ", "assay": "Membrane potential assay screen, mutant α7–GlyR chimeric channels", "type": "cell-based", "settings": "EC50 at α7 GlyR L141P, sheet 1d"}, "[7]": {"molecular_target": "α7–GlyR mutant chimeric channels (Homo sapiens, UniProt P36544, L141G)", "sequence (P36544 23-230 L141G)": "as the sequence (P36544 23-230 L141P) above, with P119G counted along it", "sequence (P23415 247-457 partner)": "as the sequence (P23415 247-457 partner) above", "assay": "Membrane potential assay screen, mutant α7–GlyR chimeric channels", "type": "cell-based", "settings": "EC50 at α7 GlyR L141G, sheet 1d"}, "[8]": {"molecular_target": "α7–GlyR mutant chimeric channels (Homo sapiens, UniProt P36544, P216A)", "sequence (P36544 23-230 P216A)": "as the sequence (P36544 23-230 L141P) above, with P119L, P194A counted along it", "sequence (P23415 247-457 partner)": "as the sequence (P23415 247-457 partner) above", "assay": "Membrane potential assay screen, mutant α7–GlyR chimeric channels", "type": "cell-based", "settings": "EC50 at α7 GlyR P216A, sheet 1d"}, "[9]": {"molecular_target": "T3, unmodified α7–GlyR (Homo sapiens, UniProt P23415+P36544)", "T3 construct": "expressed in transfected cells; host or cells: HEK293 (ATCC CRL-1573), pcDNA3.1", "T3 sequence (P36544+P23415 fused)": "as the sequence (P36544+P23415 fused P36544:L141G/P36544:G175K/P36544:Y217F) above, with G119L, K153G, F195Y counted along it", "assay": "Membrane potential assay, unmodified α7–GlyR", "type": "cell-based", "settings": "sheet 1d"}, "[10]": {"molecular_target": "T4, unmodified α7–5HT3 (UniProt P23979+P36544, M226I/T225I)", "T4 construct": "expressed in transfected cells; host or cells: HEK293 (ATCC CRL-1573), pcDNA3.1", "T4 sequence (P36544+P23979 fused P36544:T225I/P36544:M226I)": "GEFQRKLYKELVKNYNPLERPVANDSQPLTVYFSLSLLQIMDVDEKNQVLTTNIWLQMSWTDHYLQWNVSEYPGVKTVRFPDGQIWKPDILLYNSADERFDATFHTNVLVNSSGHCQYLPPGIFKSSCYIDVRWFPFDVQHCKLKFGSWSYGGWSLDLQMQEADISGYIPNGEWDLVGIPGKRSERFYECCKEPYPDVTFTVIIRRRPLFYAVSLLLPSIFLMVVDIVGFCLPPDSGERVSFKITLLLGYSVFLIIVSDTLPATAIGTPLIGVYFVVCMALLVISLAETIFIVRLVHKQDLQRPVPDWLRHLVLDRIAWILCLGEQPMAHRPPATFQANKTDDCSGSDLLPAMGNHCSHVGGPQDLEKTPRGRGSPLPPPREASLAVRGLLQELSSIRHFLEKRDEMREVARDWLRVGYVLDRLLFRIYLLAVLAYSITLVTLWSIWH", "assay": "Membrane potential assay, unmodified α7–5HT3", "type": "cell-based, human α7 nAChR LBD, mouse 5HT3 IPD"}, "[11]": {"settings": "screen of chimeric α7–5HT3 and α7–GlyR single LBD mutants (Fig. 1d)"}},
  "note": "Where “and” joins values, the source holds several entries; their conditions need not be identical. Identical values can stand only once. Like-named read-outs stand apart in the source and are kept apart here.",
  "data": [
    {"smiles": "COC(=O)[C@H]1[C@@H](OC(=O)c2ccccc2)C[C@@H]2CC[C@H]1N2C", "note": "[cocaine]", "values": [
      {"measurement": "binding to coca-GlyR", "setting": "[1]", "result": "biphasic manner"},
      {"measurement": "Ki", "setting": "[1]; KiH", "result": "0.014 ± 0.01", "unit": "nM"},
      {"measurement": "Ki", "setting": "[1]; KiL", "result": "850 ± 500", "unit": "nM"},
      {"measurement": "high-affinity binding sites", "setting": "[1]; biphasic competition curve, [^3H]ASEM", "result": "37.9 ± 0.5", "unit": "%"},
      {"measurement": "EC50", "setting": "[2]", "result": "1.2 ± 0.1", "unit": "µM"},
      {"measurement": "currents from coca-5HT3", "setting": "[3]", "result": "robust cocaine-activated currents"},
      {"measurement": "agonism at Leu141Gly or Leu141Ala mutant channels", "setting": "[4]; [11]", "result": "marked induction of cocaine agonism"},
      {"measurement": "agonist activity at Trp77Phe and Leu131Asn mutant channels", "setting": "[4]; [11]", "result": "some cocaine agonist activity"},
      {"measurement": "EC50", "setting": "[4]; AVG, read-out: EC50 at a75HT3 L141G G175K Y115F, AVG", "result": 4.78, "unit": "µM"},
      {"measurement": "EC50", "setting": "[4]; AVG, read-out: EC50 at a75HT3 L141G G175K Y210F, AVG", "result": 2.27, "unit": "µM"},
      {"measurement": "EC50", "setting": "[4]; AVG, read-out: EC50 at a75HT3 L141G G175K Y217F, AVG", "result": 0.715, "unit": "µM"},
      {"measurement": "EC50", "setting": "[4]; AVG, read-out: EC50 at a75HT3 L141G G175K, AVG", "result": 0.315, "unit": "µM"},
      {"measurement": "EC50", "setting": "[4]; AVG, read-out: EC50 at a75HT3 L141G, AVG", "result": 2.35, "unit": "µM"},
      {"measurement": "EC50", "setting": "[4]; single determinations, read-out: EC50 at a75HT3 L141G", "result": 2.35, "unit": "µM"},
      {"measurement": "EC50", "setting": "[4]; single determinations, read-out: EC50 at a75HT3 L141G G175K", "result": "0.39 µM and 0.24 µM"},
      {"measurement": "EC50", "setting": "[4]; single determinations, read-out: EC50 at a75HT3 L141G G175K Y217F", "result": "0.8 µM and 0.63 µM"},
      {"measurement": "EC50", "setting": "[5]; Avg", "result": "> 30", "unit": "µM"},
      {"measurement": "EC50", "setting": "[5]; single determinations", "result": "> 30", "unit": "µM"},
      {"measurement": "EC50", "setting": "[6]; Avg", "result": "> 30", "unit": "µM"},
      {"measurement": "EC50", "setting": "[6]; single determinations", "result": "> 30", "unit": "µM"},
      {"measurement": "EC50", "setting": "[7]; Avg", "result": 8.3, "unit": "µM"},
      {"measurement": "EC50", "setting": "[7]; single determinations", "result": "5.6 µM and 11 µM"},
      {"measurement": "EC50", "setting": "[8]; Avg", "result": "> 30", "unit": "µM"},
      {"measurement": "EC50", "setting": "[8]; single determinations", "result": "> 30", "unit": "µM"},
      {"measurement": "EC50 at α7-GlyR, Avg", "setting": "[9]; Avg", "result": 30, "unit": "µM"},
      {"measurement": "EC50 at α7-GlyR", "setting": "[9]; single determinations", "result": 30, "unit": "µM"},
      {"measurement": "EC50 at a75HT3 unmodified, AVG", "setting": "[10]; sheet 1e, AVG", "result": 30, "unit": "µM"},
      {"measurement": "EC50 at a75HT3 unmodified", "setting": "[10]; sheet 1e, single determinations", "result": 30, "unit": "µM"},
      {"measurement": "EC50 at α7-5HT3, Avg", "setting": "[10]; sheet 1d, Avg", "result": 30, "unit": "µM"},
      {"measurement": "EC50 at α7-5HT3", "setting": "[10]; sheet 1d, single determinations", "result": 30, "unit": "µM"}
    ]}
  ]
}
